Consider seven compounds from PubChem BioAssay (NCI).

Test systems include KM20L2 colon; XF 498 CNS; M19-MEL melanoma; DLD-1 colon; DMS 273 small cell lung; HOP-18 NSCLC; RXF-631 renal.
Experiment in all cases: inhibition of tumour cell growth, NCI panel, 48 h

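Results reflect a 48-hour exposure of cells in 96-well plates to compound at five concentrations. TGI: total growth inhibition.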

With `O=C1C(=O)c2ccccc2C(O)=C1CCCc1ccc(Oc2ccccc2)cc1`, the TGI in the test with KM20L2 colon is 73.2 µM; with XF 498 CNS, 66.1 µM; in the test with M19-MEL melanoma, 37.9 µM; in the test on DLD-1 colon it was more than 100 µM; with DMS 273 small cell lung it was 51.8 µM.
For the compound `CCOC(=O)Cc1cc(OC)c(OC)cc1/C(Cl)=C(\C=O)c1ccc(OC)c(OC)c1`, the TGI amounted to 35.7 µM in the test with KM20L2 colon; 46.2 µM in the test on XF 498 CNS; 55.6 µM in the test with M19-MEL melanoma; 48.8 µM in the test with DLD-1 colon; 75.4 µM with HOP-18 NSCLC; 49 µM in the test with RXF-631 renal. Besides, the TGI with DMS 273 small cell lung turned out to be 44.3 µM.
Turning to `CC1(c2ccc[n+](Cc3ccccc3)c2)OCCO1`, the TGI in the test on KM20L2 colon, in the test on M19-MEL melanoma, in the test on DLD-1 colon, in the test on HOP-18 NSCLC and in the test with DMS 273 small cell lung was more than 100 µM throughout.
For the compound `COc1cc(C(C)c2cc3c(cc2OCCO)OCO3)cc(OC)c1OC` (centres undefined), the TGI is 5.33 µM in the test with XF 498 CNS; more than 100 µM in the test on M19-MEL melanoma; more than 100 µM in the test with DLD-1 colon; more than 100 µM with HOP-18 NSCLC; more than 100 µM with DMS 273 small cell lung.
In the case of `COc1ccc(C2N(NC(=O)c3ccncc3)C(=O)CS2(=O)=O)cc1F` (centres undefined), the TGI with XF 498 CNS, with DLD-1 colon, in the test on HOP-18 NSCLC, in the test with RXF-631 renal and with DMS 273 small cell lung was more than 100 µM each time.
Regarding `COc1ccc(C(=O)Cc2ccc(Br)cc2)cc1OC`, the TGI is more than 100 µM in the test on KM20L2 colon; 71 µM with XF 498 CNS; more than 100 µM in the test with M19-MEL melanoma; more than 100 µM in the test on DLD-1 colon; more than 100 µM with HOP-18 NSCLC; more than 100 µM with RXF-631 renal. The compound also showed a TGI in the test with DMS 273 small cell lung of more than 100 µM.
`COc1cc2cc[n+]3c(C)c4cc(OC)c(OC)cc4c([O-])c3c2cc1OC`: the TGI with KM20L2 colon was more than 100 µM; in the test with XF 498 CNS, 82.1 µM; in the test on M19-MEL melanoma, more than 100 µM; in the test on DLD-1 colon, more than 100 µM; with DMS 273 small cell lung it was more than 100 µM.
